From patent publication EP3835316A1, “MOLECULES FOR USE TO TREAT OR PREVENT CARDIAC DISEASES” (Universiteit Gent, priority 2019, dated 2021)

Biological target: T1, Cx43 HC (Mus musculus, UniProt P23242)
T1 construct: left ventricular isolated cardiomyocytes were collected; endogenous in cells; host or cells: left ventricular cardiomyocytes acutely isolated from adult C57BL6 mice
Experiment: Whole cell voltage-clamp recording of Cx43 HC unitary currents activated by combined RyR activation (caffeine)/[Ca2+]i elevation in isolated ventricular cardiomyocytes
Format: cell-based
Details: RyR inhibitors; [Ca2+]i clamped to 250 nM (10 mM BAPTA); Vm = -70 mV
Procedure: Adult C57BL6 mice, between 10 - 16 weeks, were heparinized (5000 IU/kg IP) and sacrificed by cervical dislocation. Following thoracotomy, the heart was quickly excised and then transferred to a Langendorff apparatus and perfused at a constant flow (^∼3 mL/min) and temperature (37°C). The heart was digested using collagenase and protease and left ventricular isolated cardiomyocytes were collected. Ca^2+-tolerant cells were used for the experiment for the next 6 hours. In case of Cx43 knockdown (KD) (Cx43^CreER(T)/fl) and respective control mice (Cre43^fl/fl) the isolation procedures were preceded by daily injection of tamoxifen to achieve global knockdown condition^25. Cre43^fl/fl mice are available from The Jackson Laboratory and the Cx43^CreER(T)/fl transgenic mouse strain can be made by any method known in the art.
Isolated ventricular cardiomyocytes and HeLa-Cx43 cells were studied under whole cell voltage-clamp to record membrane currents. Patch clamp experiments were conducted at room temperature (22 ± 1 °C). Fluo-4 (25 µM) was used to detect the [Ca^2+]i transients during the current recording.
Caffeine triggers two combined events, RyR activation and subsequent [Ca^2+]i elevation, and we next aimed to separate both processes. […] For simplicity, we further refer to the calculated concentrations in the following text. […]

T1 sequence (P23242 whole entry): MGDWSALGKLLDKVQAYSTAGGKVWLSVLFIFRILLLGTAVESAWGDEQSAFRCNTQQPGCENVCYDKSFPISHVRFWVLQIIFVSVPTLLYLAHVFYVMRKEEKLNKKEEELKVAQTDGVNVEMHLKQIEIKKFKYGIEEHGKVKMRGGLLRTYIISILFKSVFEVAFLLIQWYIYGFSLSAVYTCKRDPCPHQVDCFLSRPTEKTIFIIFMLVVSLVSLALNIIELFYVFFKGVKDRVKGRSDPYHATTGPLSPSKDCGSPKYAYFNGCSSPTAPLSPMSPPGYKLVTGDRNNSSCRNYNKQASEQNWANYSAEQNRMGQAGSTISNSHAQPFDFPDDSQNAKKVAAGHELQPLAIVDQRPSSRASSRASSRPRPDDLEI

| Compound | caffeine-induced Cx43 HC activation |
| --- | --- |
| ryanodine | did not inhibit |
| O=C1CN(/N=C/c2ccc(-c3ccc([N+](=O)[O-])cc3)o2)C(O)=N1 [dantrolene] | did not inhibit |
